These results are taken from patent US7981903B2, “2-[2-{phenylamino}-1H-pyrrolo[2,3-D]pyrimidin-4-yl)amino] benzamide derivatives as IGF-1R inhibitors for the treatment of cancer” (GlaxoSmithKline LLC, priority 2007, dated 2011).

The target of test [1] is T1, NIH-3T3 cells overexpressing human IGF-1R (Homo sapiens, UniProt P08069).
T1 construct: expressed in transfected cells; host or cells: NIH-3T3 (mouse fibroblasts)
Description: IGF-1R cellular autophosphorylation (DELFIA). The class given is cell-based. The essentials: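 Receptor autophosphorylation measured by DELFIA, capturing IGF-1R or IRβ and detecting with europium anti-pTyr, reported as percent of IGF-1- or insulin-stimulated signal. Compounds (30 uM to 1.5 nM) added 2 h before ligand, then 15 min stimulation (IGF-1 30 ng/ml or insulin 3 ug/ml).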

A further test has as its system Colo205. Nature of the test: Inhibition of cell proliferation (CellTiter-Glo or InCell analyzer), Colo205. In kind it is cell-based. The following applies: Homo sapiens, COLO 205, 72 h / 3 days, values given as IC50 category. The essentials:
In one

The target of the next test is ALK (Homo sapiens, UniProt Q9UM73). Description: ALK enzyme assay (HTRF). In kind it is biochemical. As to conditions: 0.25 nM ALK, 15.0 μM ATP, values given as pIC50 category. The essentials: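 Isolated ALK phosphorylates a biotinylated tyrosine peptide, 120 min at 20° C; anti-phosphotyrosine Eu-cryptate/streptavidin-XL665 HTRF read after 60 min with EDTA-containing detection mix.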
A general note: TR-FRET usually uses a lanthanide donor and a delayed reading to cut background.

The next test relates to NCI-H929. Nature of the test: Inhibition of cell proliferation (CellTiter-Glo or InCell analyzer), NCI-H929. The class given is cell-based. As to conditions: Homo sapiens, 72 h / 3 days, values given as IC50 category. The essentials:
In one
(In general: In ATP-based viability assays light output follows the ATP content of the culture.)

Bounds are passed on as bounds.

One may read the IC50 as the concentration that inhibits the measured activity by half. The low end stands for greater potency in that assay, the high end for weaker potency in that assay.

ALK, sequence (Q9UM73 19-1620): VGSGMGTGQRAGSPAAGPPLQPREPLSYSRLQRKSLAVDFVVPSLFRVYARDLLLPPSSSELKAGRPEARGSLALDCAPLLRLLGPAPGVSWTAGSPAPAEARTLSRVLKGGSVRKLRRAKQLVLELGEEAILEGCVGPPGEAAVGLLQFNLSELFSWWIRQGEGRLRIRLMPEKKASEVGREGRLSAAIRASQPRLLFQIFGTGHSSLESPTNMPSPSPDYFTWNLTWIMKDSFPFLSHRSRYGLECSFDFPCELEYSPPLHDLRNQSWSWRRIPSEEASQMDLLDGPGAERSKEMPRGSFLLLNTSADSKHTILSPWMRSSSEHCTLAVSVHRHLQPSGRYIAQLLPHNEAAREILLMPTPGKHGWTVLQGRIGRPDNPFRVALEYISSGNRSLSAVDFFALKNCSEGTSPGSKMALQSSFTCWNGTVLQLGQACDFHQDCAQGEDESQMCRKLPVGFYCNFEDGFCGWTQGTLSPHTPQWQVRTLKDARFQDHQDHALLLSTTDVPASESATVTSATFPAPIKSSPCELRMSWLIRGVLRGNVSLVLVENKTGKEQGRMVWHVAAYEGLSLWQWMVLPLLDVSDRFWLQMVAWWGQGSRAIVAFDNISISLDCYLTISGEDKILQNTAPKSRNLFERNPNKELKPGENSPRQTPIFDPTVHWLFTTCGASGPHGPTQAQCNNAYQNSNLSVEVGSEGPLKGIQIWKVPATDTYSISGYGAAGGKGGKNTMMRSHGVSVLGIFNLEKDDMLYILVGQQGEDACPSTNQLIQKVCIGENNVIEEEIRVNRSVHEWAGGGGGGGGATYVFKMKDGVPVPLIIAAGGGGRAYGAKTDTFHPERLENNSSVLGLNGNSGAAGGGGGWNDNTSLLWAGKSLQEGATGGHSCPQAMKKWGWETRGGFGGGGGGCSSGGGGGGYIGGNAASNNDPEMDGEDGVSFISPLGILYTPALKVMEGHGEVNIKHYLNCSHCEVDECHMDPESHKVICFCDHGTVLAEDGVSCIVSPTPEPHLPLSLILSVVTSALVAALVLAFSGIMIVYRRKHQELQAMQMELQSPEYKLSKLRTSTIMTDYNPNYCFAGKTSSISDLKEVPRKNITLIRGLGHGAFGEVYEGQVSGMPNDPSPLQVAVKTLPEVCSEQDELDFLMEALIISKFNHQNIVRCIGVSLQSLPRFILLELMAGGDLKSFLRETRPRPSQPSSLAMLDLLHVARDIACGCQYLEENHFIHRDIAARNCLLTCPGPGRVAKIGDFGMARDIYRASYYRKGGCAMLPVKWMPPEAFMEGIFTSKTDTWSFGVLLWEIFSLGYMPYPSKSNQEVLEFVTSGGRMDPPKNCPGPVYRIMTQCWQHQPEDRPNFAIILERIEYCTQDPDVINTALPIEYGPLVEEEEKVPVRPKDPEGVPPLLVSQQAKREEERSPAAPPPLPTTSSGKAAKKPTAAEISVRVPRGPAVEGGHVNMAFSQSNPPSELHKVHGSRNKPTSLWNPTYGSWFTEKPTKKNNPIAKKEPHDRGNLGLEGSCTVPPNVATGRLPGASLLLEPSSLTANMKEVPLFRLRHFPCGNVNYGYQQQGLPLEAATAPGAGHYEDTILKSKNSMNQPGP
T1 sequence (P08069 31-1367): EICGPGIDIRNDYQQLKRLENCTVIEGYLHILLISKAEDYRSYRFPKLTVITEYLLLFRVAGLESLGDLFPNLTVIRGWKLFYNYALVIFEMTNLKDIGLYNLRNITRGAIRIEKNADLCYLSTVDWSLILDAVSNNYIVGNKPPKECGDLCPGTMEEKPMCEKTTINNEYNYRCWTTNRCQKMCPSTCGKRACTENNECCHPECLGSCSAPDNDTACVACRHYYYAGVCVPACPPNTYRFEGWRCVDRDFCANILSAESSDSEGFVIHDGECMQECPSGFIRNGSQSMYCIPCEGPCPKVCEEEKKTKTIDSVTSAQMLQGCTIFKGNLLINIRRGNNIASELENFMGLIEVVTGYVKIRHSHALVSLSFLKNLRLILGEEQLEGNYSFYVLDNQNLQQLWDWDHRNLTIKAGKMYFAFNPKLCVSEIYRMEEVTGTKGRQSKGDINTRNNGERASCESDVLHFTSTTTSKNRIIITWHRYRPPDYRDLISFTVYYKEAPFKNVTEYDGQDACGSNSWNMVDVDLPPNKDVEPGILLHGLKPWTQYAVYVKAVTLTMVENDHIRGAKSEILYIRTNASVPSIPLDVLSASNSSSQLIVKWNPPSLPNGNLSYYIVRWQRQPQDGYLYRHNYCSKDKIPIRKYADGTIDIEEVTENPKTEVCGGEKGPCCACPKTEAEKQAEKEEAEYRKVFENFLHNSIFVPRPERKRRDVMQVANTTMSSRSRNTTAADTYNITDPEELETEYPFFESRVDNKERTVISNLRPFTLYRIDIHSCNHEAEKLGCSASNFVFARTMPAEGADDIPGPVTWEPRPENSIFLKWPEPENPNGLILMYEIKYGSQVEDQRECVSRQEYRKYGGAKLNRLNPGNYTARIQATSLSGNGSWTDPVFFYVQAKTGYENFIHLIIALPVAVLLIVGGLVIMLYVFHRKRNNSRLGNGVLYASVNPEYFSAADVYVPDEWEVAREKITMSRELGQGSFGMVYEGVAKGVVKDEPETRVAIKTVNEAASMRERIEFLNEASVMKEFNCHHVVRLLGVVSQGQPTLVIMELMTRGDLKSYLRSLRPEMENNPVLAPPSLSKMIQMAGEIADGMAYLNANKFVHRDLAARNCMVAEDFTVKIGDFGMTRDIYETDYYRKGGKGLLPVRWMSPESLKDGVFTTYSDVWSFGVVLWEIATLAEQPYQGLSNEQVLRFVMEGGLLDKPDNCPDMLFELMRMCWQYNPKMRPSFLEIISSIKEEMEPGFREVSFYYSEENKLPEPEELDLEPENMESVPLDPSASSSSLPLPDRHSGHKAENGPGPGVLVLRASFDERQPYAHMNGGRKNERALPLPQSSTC

For the molecule `CCCN1CCC=C(c2ccc(Nc3nc(Nc4ccccc4C(N)=O)c4cc[nH]c4n3)c(OC)c2)C1` [Example 2, 2-[(2-{[2-(methyloxy)-4-(1-propyl-1,2,5,6-tetrahydro-3-pyridinyl)phenyl]amino}-1H-pyrrolo[2,3-d]pyrimidin-4-yl)amino]benzamide], the concentration for half-maximal inhibition (IC50) is 100 to 500 nM in test [1], below 250 nM in the test on Colo205, 0.251 to 1 nM against ALK and below 250 nM in the test with NCI-H929.
Consider `CCCN1CCCC(c2ccc(Nc3nc(Nc4ccccc4C(N)=O)c4cc[nH]c4n3)c(OC)c2)C1` (centres unmarked) [Example 3, 2-[(2-{[2-(methyloxy)-4-(1-propyl-3-piperidinyl)phenyl]amino}-1H-pyrrolo[2,3-d]pyrimidin-4-yl)amino]benzamide], for which the 50% inhibitory concentration (IC50) in test [1] was below 100 nM; in the test on Colo205 it was below 250 nM; against ALK it was 0.251 to 1 nM.
Consider `COc1cc(N2CCN(C(C)C)CC2)ccc1Nc1nc(Nc2ccccc2C(N)=O)c2cc[nH]c2n1` [Example 7, 2-[(2-{[4-[4-(1-methylethyl)-1-piperazinyl]-2-(methyloxy)phenyl]amino}-1H-pyrrolo[2,3-d]pyrimidin-4-yl)amino]benzamide], for which the half-inhibitory concentration (IC50) in test [1] was below 100 nM; with Colo205, below 250 nM; on ALK, 0.251 to 1 nM; in the test with NCI-H929, below 250 nM.
On to `COc1ccc(NC(=O)CN(C)C)cc1Nc1nc(Nc2ccccc2C(N)=O)c2cc[nH]c2n1` [Example 15, 2-[(2-{[5-[(N,N-dimethylglycyl)amino]-2-(methyloxy)phenyl]amino}-1H-pyrrolo[2,3-d]pyrimidin-4-yl)amino]benzamide], for which the IC50 is below 100 nM in test [1], below 250 nM in the test on Colo205 and 0.251 to 1 nM at ALK.
For `CN(C)CC(=O)Nc1ccc(OC(F)(F)F)c(Nc2nc(Nc3ccccc3C(N)=O)c3cc[nH]c3n2)c1` [Example 16, 2-{[2-({5-[(N,N-dimethylglycyl)amino]-2-[(trifluoromethyl)oxy]phenyl}amino)-1H-pyrrolo[2,3-d]pyrimidin-4-yl]amino}benzamide], the values for the IC50 (in test [1]; in the test with Colo205; against ALK) were 100 to 500 nM, 250 to 1000 nM and 0.251 to 1 nM, respectively.
In the same order, the values of `CN(C)CC(=O)Nc1ccc(F)c(Nc2nc(Nc3ccccc3C(N)=O)c3cc[nH]c3n2)c1` [Example 17, 2-{[2-({5-[(N,N-dimethylglycyl)amino]-2-fluorophenyl}amino)-1H-pyrrolo[2,3-d]pyrimidin-4-yl]amino}benzamide] are below 100 nM, below 250 nM and 0.251 to 1 nM.
In the same order, the values of `COc1ccc(C(N)=O)c(Nc2nc(Nc3ccc(N4CCOC[C@@H]4C)cc3OC)nc3[nH]ccc23)c1` [Example 39, 2-[(2-{[4-[(3S)-3-methyl-4-morpholinyl]-2-(methyloxy)phenyl]amino}-1H-pyrrolo[2,3-d]pyrimidin-4-yl)amino]-4-(methyloxy)benzamide] are 100 to 500 nM, 250 to 1000 nM and 1.26 to 3.98 nM.
Consider `COc1cc2c(cc1Nc1nc(Nc3cccc(F)c3C(N)=O)c3cc[nH]c3n1)N(C(=O)CN(C)C)CC2` [Example 53, 2-[(2-{[1-(N,N-dimethylglycyl)-5-(methyloxy)-2,3-dihydro-1H-indol-6-yl]amino}-1H-pyrrolo[2,3-d]pyrimidin-4-yl)amino]-6-fluorobenzamide], for which the IC50 in test [1] was below 100 nM; with Colo205 it was below 250 nM; at ALK, 0.251 to 1 nM; with NCI-H929 it was below 250 nM.
In the case of `CCCN1CCC=C(c2ccc(Nc3nc(Nc4ccc(F)cc4C(N)=O)c4cc[nH]c4n3)c(OC)c2)C1` [Example 54, 5-fluoro-2-[(2-{[2-(methyloxy)-4-(1-propyl-1,2,5,6-tetrahydro-3-pyridinyl)phenyl]amino}-1H-pyrrolo[2,3-d]pyrimidin-4-yl)amino]benzamide], the 50% inhibitory concentration (IC50) in test [1] was 100 to 500 nM; in the test with Colo205, below 250 nM; against ALK it was 0.251 to 1 nM.
As for `COc1cc(C2CCN(C(C)C)CC2)ccc1Nc1nc(Nc2ccc(F)cc2C(N)=O)c2cc[nH]c2n1` [Example 58, 5-fluoro-2-[(2-{[4-[1-(1-methylethyl)-4-piperidinyl]-2-(methyloxy)phenyl]amino}-1H-pyrrolo[2,3-d]pyrimidin-4-yl)amino]benzamide], the IC50 in test [1] was below 100 nM; in the test with Colo205, below 250 nM; against ALK, 0.251 to 1 nM; in the test with NCI-H929, below 250 nM.
For `COc1cc(N2CCC(N3CCOCC3)CC2)ccc1Nc1nc(Nc2cc(F)ccc2C(N)=O)c2cc[nH]c2n1` [Example 78, 4-fluoro-2-{[2-({2-(methyloxy)-4-[4-(4-morpholinyl)-1-piperidinyl]phenyl}amino)-1H-pyrrolo[2,3-d]pyrimidin-4-yl]amino}benzamide], the results for the concentration for half-maximal inhibition (IC50) (in test [1]; with Colo205; at ALK) were below 100 nM, 250 to 1000 nM and 0.251 to 1 nM, respectively.
For the molecule `COc1cc(N2CCOC[C@@H]2C)ccc1Nc1nc(Nc2cc(F)ccc2C(N)=O)c2cc[nH]c2n1` [Example 84, 4-fluoro-2-[(2-{[4-[(3S)-3-methyl-4-morpholinyl]-2-(methyloxy)phenyl]amino}-1H-pyrrolo[2,3-d]pyrimidin-4-yl)amino]benzamide], the 50% inhibitory concentration (IC50) in test [1] was below 100 nM; in the test with Colo205, below 250 nM; at ALK, 1.26 to 3.98 nM.
`COc1ccc(OC[C@@H](O)CN(C)C)cc1Nc1nc(Nc2cc(F)ccc2C(N)=O)c2cc[nH]c2n1` [Example 86, 2-[(2-{[5-{[(2S)-3-(dimethylamino)-2-hydroxypropyl]oxy}-2-(methyloxy)phenyl]amino}-1H-pyrrolo[2,3-d]pyrimidin-4-yl)amino]-4-fluorobenzamide]: the concentration for half-maximal inhibition (IC50) in test [1] was 100 to 500 nM; in the test with Colo205 it was below 250 nM; on ALK, 0.251 to 1 nM.
For `COc1cc(N2CCN(C(C)C)CC2)ccc1Nc1nc(Nc2cc(F)cc(F)c2C(N)=O)c2cc[nH]c2n1` [Example 89, 2,4-difluoro-6-[(2-{[4-[4-(1-methylethyl)-1-piperazinyl]-2-(methyloxy)phenyl]amino}-1H-pyrrolo[2,3-d]pyrimidin-4-yl)amino]benzamide], the half-inhibitory concentration (IC50) in test [1] was below 100 nM; in the test on Colo205, 250 to 1000 nM; at ALK it was 0.251 to 1 nM; in the test on NCI-H929, below 250 nM.
Take `COc1cc(N2CCN(C(C)C)CC2)c(C)cc1Nc1nc(Nc2cc(F)cc(F)c2C(N)=O)c2cc[nH]c2n1` [Example 91, 2,4-difluoro-6-[(2-{[5-methyl-4-[4-(1-methylethyl)-1-piperazinyl]-2-(methyloxy)phenyl]amino}-1H-pyrrolo[2,3-d]pyrimidin-4-yl)amino]benzamide]: the half-maximal inhibitory concentration (IC50) in test [1] is below 100 nM; in the test on Colo205, below 250 nM; on ALK, 0.251 to 1 nM; in the test with NCI-H929 it was below 250 nM.
Regarding `CCCN1CCC(c2ccc(Nc3nc(Nc4cc(F)cc(F)c4C(N)=O)c4cc[nH]c4n3)c(OC)c2)CC1` [Example 92, 2,4-difluoro-6-[(2-{[2-(methyloxy)-4-(1-propyl-4-piperidinyl)phenyl]amino}-1H-pyrrolo[2,3-d]pyrimidin-4-yl)amino]benzamide], the IC50 is below 100 nM in test [1], below 250 nM in the test on Colo205, 0.251 to 1 nM at ALK and below 250 nM in the test on NCI-H929.
On to `COc1ccc(OC[C@@H](O)CN2CCCC2)cc1Nc1nc(Nc2cc(F)c(F)cc2C(N)=O)c2cc[nH]c2n1` [Example 107, 4,5-difluoro-2-[(2-{[5-{[(2S)-2-hydroxy-3-(1-pyrrolidinyl)propyl]oxy}-2-(methyloxy)phenyl]amino}-1H-pyrrolo[2,3-d]pyrimidin-4-yl)amino]benzamide], for which the half-inhibitory concentration (IC50) in test [1] is 100 to 500 nM; in the test on Colo205 it was 250 to 1000 nM; at ALK it was 1.26 to 3.98 nM.
Take `COc1cc2c(cc1Nc1nc(Nc3cccc(F)c3C(N)=O)c3cc[nH]c3n1)N(CCN(C)C)CC2` [Example 117, 2-[(2-{[1-[2-(dimethylamino)ethyl]-5-(methyloxy)-2,3-dihydro-1H-indol-6-yl]amino}-1H-pyrrolo[2,3-d]pyrimidin-4-yl)amino]-6-fluorobenzamide]: the IC50 was above 500 nM in test [1], above 1000 nM in the test with Colo205, 5.01 to 200 nM against ALK and 250 to 1000 nM in the test on NCI-H929.
Regarding `COc1cc2c(cc1Nc1nc(Nc3cccc(F)c3C(N)=O)c3cc[nH]c3n1)N(C(=O)CCN(C)C)CC2` [Example 118, 2-[(2-{[1-(N,N-dimethyl-b-alanyl)-5-(methyloxy)-2,3-dihydro-1H-indol-6-yl]amino}-1H-pyrrolo[2,3-d]pyrimidin-4-yl)amino]-6-fluorobenzamide], the IC50 is 100 to 500 nM in test [1], 250 to 1000 nM with Colo205, 5.01 to 200 nM at ALK and below 250 nM in the test with NCI-H929.
Regarding `COc1cc2c(cc1Nc1nc(Nc3cc(Cl)cc(F)c3C(N)=O)c3cc[nH]c3n1)N(C(=O)CN(C)C)CC2` [Example 119, 4-chloro-2-[(2-{[1-(N,N-dimethylglycyl)-5-(methyloxy)-2,3-dihydro-1H-indol-6-yl]amino}-1H-pyrrolo[2,3-d]pyrimidin-4-yl)amino]-6-fluorobenzamide], the IC50 was below 100 nM in test [1], 250 to 1000 nM with Colo205, 1.26 to 3.98 nM against ALK and below 250 nM in the test on NCI-H929.
Take `COc1cc2c(cc1Nc1nc(Nc3cccc(F)c3C(N)=O)c3cc[nH]c3n1)CN(C)CC2` [Example 121, 2-fluoro-6-[(2-{[2-methyl-6-(methyloxy)-1,2,3,4-tetrahydro-7-isoquinolinyl]amino}-1H-pyrrolo[2,3-d]pyrimidin-4-yl)amino]benzamide]: the 50% inhibitory concentration (IC50) in test [1] is 100 to 500 nM; in the test with Colo205, 250 to 1000 nM; against ALK, 1.26 to 3.98 nM; in the test on NCI-H929, below 250 nM.
